This passage reports EC50 results from patent US20220233549A1, “METHOD FOR ALPHAVIRUS INHIBITION” (priority 2019, published 2022).

What all share (format): cell-based
Experiment [1] relates to CHIKV 181/clone25. The experiment in a line: CHIKV cytopathic effect (CPE) protection assay in Vero cells. The note with it: Chikungunya virus; CHIKV 181/clone25, Vero cells, MOI=0.01, 48 hrs, protection from CPE (crystal violet, absorbance 595nm).
Experiment [2] has as its system ONNV (SG-650). The experiment in a line: Activity of Example 1 against other alphaviruses: ONNV.
In experiment [3] the test system is MAYV. The experiment in a line: Activity of Example 1 against other alphaviruses: MAYV.
Experiment [4] relates to SINV (TR-339). The experiment in a line: organism not typed.
Experiment [5] relates to VEEV (ZPC). The experiment in a line: microbe, parasite or virus in culture. The note with it: Venezuelan equine encephalitis virus.
Experiment [6] relates to Influenza. The experiment in a line: Activity of Example 1 against non-alphaviruses: Influenza.
The test system of experiment [7] is Dengue. The experiment in a line: Activity of Example 1 against non-alphaviruses: Dengue. The note with it: Dengue virus.
Experiment [8] concerns Vaccinia. The experiment in a line: Activity of Example 1 against non-alphaviruses: Vaccinia. The note with it: Orthopoxvirus vaccinia.
The subject of experiment [9] is BK Polyomavirus. The experiment in a line: Activity of Example 1 against non-alphaviruses: BK Polyomavirus. The note with it: Betapolyomavirus hominis.

As for `CN1C(=O)C(CC(=O)NCC2CCCCC2)Sc2ncccc21` (stereo not drawn) [Example 1, N-(cyclohexylmethyl)-2-(1-methyl-2-oxo-2,3-dihydro-1H-pyrido[2,3-b][1,4]thiazin-3-yl)acetamide], the EC50 is under 10 µM in [1]; under 10 µM in experiment [2]; 10 to 49.9 µM in [3]; over 100 µM in experiment [4]; under 10 µM in experiment [5]; over 100 µM in experiment [6]. Moreover, the EC50 in experiment [7], in experiment [8] and in experiment [9] was over 100 µM in each case.
In [1], `O=C(CC1Sc2ncccc2NC1=O)NCC1(F)CCCCC1` (stereo not drawn) [Example 78, N-((1-fluorocyclohexyl)methyl)-2-(2-oxo-2,3-dihydro-1H-pyrido[2,3-b][1,4]thiazin-3-yl)acetamide] displayed an EC50 of under 10 µM.
The same measure, in the same setting: under `CCN1C(=O)C(CC(=O)N2CCCCCC2)Sc2ncccc21` (stereo not drawn) [Example 45, 3-(2-(azepan-1-yl)-2-oxoethyl)-1-ethyl-1H-pyrido[2,3-b][1,4]thiazin-2(3H)-one] stands over 100 µM; under `CC1CCN(C(=O)CC2Sc3ncccc3N(C)C2=O)CC1` (stereo not drawn) [Example 36, 1-methyl-3-(2-(4-methylpiperidin-1-yl)-2-oxoethyl)-1H-pyrido[2,3-b][1,4]thiazin-2(3H)-one], over 100 µM; under `CN1C(=O)[C@@H](CC(=O)NCC2CCCCC2)Sc2ncccc21` [Example 6, (R)-N-(cyclohexylmethyl)-2-(1-methyl-2-oxo-2,3-dihydro-1H-pyrido[2,3-b][1,4]thiazin-3-yl)acetamide], under 10 µM.
The same measure, in the same setting: under `O=C(CC1Sc2ncccc2NC1=O)NCC1CCSCC1` (stereo not drawn) [Example 47, 2-(2-oxo-2,3-dihydro-1H-pyrido[2,3-b][1,4]thiazin-3-yl)-N-((tetrahydro-2H-thiopyran-4-yl)methyl)acetamide] stands 10 to 49.9 µM.
Consider `CC1(CNC(=O)CC2Sc3ncccc3NC2=O)CCCCC1` (stereo not drawn) [Example 66, N-((1-methylcyclohexyl)methyl)-2-(2-oxo-2,3-dihydro-1H-pyrido[2,3-b][1,4]thiazin-3-yl)acetamide], for which the concentration giving a half-maximal response (EC50) in experiment [1] was under 10 µM.
On the same count and under the same terms, the same measure for `CN(C)CCCNC(=O)CC1Sc2ncccc2N(C)C1=O` (stereo not drawn) [Example 28, N-(3-(dimethylamino)propyl)-2-(1-methyl-2-oxo-2,3-dihydro-1H-pyrido[2,3-b][1,4]thiazin-3-yl)acetamide]: over 100 µM.
The compound `CN1C(=O)C(CC(=O)NCc2ccccn2)Sc2ncccc21` (stereo not drawn) [Example 12, 2-(1-methyl-2-oxo-2,3-dihydro-1H-pyrido[2,3-b][1,4]thiazin-3-yl)-N-(pyridin-2-ylmethyl)acetamide] gave an EC50 in experiment [1] of over 100 µM.
In the case of `CC(NC(=O)CC1Sc2ncccc2N(C)C1=O)c1ccccc1` (stereo not drawn) [Example 17, 2-(1-methyl-2-oxo-2,3-dihydro-1H-pyrido[2,3-b][1,4]thiazin-3-yl)-N-(1-phenylethyl)acetamide], the EC50 in experiment [1] was over 100 µM.

As a reminder, the EC50 is the concentration at which the effect is half-maximal. A low value points to a more potent agent.
